Km data for 1 molecule are collected here from paper PMC3688963, “Biochemical Characterization of Hypothetical Proteins from Helicobacter pylori” (PLoS ONE, 2013).

This assay addresses T1, HP1079 (Helicobacter pylori, UniProt O25711).
T1 construct: gene HP_1079; native protein captured with GTP-coated nano-particles; His6 recombinant also made
T1 sequence (O25711 1-370): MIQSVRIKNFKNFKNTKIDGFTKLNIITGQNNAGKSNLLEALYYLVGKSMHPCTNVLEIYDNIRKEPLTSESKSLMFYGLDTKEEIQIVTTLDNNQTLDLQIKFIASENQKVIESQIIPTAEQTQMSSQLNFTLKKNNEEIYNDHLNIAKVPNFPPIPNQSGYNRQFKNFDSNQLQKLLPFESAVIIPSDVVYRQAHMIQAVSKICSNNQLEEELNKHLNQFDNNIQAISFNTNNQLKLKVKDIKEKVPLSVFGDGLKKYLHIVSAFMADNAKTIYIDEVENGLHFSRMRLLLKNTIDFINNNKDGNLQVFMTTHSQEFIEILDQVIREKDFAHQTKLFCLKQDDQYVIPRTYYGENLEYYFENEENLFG
The assay can be described thus: phosphate release, malachite green. In kind it is biochemical. The settings on record: 10 mM MgCl2, 10% glycerol, 100 mM sodium acetate pH 6.0, 30°C; read-out: Km (mM)^bc. The source says:
phosphate release, malachite green on HP1079

As for `Nc1ncnc2c1ncn2[C@@H]1O[C@H](COP(=O)(O)OP(=O)(O)OP(=O)(O)O)[C@@H](O)[C@H]1O` [ATP], the Km amounted to 1.02 ± 0.05 mM.
